This note sets out measurements from ChEMBL document CHEMBL1145568, “Opioids and efflux transporters. Part 3: P-glycoprotein substrate activity of 3-hydroxyl addition to meperidine analogs” (Bioorg Med Chem Lett, 2008).

The structures appear in SMILES notation. Where a name gives a salt, the structure may show the parent alone.

The target of this data set is P-gp (ABCB1) ATPase (Homo sapiens, UniProt P08183). As to the kind of experiment: Stimulation of Pgp ATPase activity at 200 uM by Pgp-Glo assay system relative to control. The settings on record: read-out: Fold change.
Chain of P-gp (ABCB1) ATPase (P08183 whole entry): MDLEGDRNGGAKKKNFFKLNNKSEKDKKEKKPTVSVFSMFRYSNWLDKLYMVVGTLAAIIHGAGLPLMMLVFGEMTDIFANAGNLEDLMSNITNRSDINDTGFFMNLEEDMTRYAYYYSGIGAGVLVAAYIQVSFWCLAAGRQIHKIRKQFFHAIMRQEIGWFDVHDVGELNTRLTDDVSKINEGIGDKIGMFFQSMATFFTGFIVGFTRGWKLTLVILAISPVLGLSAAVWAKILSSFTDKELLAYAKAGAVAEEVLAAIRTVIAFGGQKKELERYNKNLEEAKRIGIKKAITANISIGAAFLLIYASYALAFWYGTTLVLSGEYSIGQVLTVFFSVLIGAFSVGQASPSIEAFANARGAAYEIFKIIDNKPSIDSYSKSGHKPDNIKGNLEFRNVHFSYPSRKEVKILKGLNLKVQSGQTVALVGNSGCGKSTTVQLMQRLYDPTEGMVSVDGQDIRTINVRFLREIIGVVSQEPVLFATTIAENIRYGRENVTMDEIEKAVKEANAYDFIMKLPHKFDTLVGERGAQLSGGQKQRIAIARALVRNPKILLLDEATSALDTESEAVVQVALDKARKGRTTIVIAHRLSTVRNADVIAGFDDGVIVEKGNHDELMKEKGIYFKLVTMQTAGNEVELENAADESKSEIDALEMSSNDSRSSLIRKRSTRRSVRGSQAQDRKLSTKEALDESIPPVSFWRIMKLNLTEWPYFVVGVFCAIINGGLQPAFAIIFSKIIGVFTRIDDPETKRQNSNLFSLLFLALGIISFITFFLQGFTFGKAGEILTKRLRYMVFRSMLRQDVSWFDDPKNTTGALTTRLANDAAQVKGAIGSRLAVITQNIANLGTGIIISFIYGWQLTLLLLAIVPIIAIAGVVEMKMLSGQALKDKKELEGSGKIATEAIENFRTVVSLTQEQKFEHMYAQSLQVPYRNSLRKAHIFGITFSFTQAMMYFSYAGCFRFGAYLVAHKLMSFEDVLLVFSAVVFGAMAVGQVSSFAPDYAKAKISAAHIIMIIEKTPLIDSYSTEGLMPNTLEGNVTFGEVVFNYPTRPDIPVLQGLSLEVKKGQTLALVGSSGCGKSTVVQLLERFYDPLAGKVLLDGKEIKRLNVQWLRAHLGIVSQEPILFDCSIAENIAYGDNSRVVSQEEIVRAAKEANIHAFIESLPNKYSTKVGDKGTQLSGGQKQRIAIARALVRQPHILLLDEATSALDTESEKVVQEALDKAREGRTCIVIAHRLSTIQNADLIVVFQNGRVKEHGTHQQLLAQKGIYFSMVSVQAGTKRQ

With `CCC(=O)C1(c2ccccc2)CCN(C)CC1`, the fold induction at 200 µM came to 1.37.

For `CCOC(=O)C1(c2ccccc2)CCN(C)CC1` [PETHIDINE OXALATE], the fold induction at 200 µM worked out at 1.78.

In the case of `CCC(=O)C1(c2cccc(O)c2)CCN(C)CC1` [KETOBEMIDONE OXALATE], the fold induction at 200 µM came out at 4.89.

For `CCOC(=O)C1(c2cccc(O)c2)CCN(C)CC1` [BEMIDONE], the fold induction at 200 µM worked out at 2.64.
